The values that follow come from PMC8612152, “Mapping Molecular Recognition of β1,3-1,4-Glucans by a Surface Glycan-Binding Protein from the Human Gut Symbiont Bacteroides ovatus” (Microbiology Spectrum, 2021).

Holding throughout (type): binding
Assay [1] addresses T1, BoSGBPMLG-A (Bacteroides ovatus, UniProt A0AAN3A7L1).
T1 construct: gene BACOVA_02743; residues 24-558, signal peptide and lipidation Cys excluded, N-terminal His6 tag (pHTP1-A57), expressed in E. coli BL21(DE3); NT-647 dye labelled for MST
T1 sequence (A0AAN3A7L1 24-558): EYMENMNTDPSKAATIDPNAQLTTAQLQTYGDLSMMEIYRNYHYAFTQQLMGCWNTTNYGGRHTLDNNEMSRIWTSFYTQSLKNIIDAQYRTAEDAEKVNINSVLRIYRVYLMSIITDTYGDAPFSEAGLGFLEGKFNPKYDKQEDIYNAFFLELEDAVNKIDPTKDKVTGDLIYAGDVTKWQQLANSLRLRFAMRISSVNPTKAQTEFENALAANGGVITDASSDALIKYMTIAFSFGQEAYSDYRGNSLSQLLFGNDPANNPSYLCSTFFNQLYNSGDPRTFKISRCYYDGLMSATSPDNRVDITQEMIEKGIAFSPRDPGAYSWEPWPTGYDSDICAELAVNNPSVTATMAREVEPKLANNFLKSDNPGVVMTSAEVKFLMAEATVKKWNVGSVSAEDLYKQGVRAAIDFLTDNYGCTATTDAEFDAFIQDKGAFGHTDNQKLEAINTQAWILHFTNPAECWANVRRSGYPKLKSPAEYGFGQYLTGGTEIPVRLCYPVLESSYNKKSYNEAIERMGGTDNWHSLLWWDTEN
The assay is described as follows: microscale thermophoresis. The following applies: 50 mM HEPES pH 7.5, 100 mM NaCl, 5 mM CaCl2, 5 mM TCEP, 0.05% Tween 20, 25°C; protein NT-647 labelled; one-site model.

The next assay concerns the target T2, BoSGBPMLG-A-ZB (Bacteroides ovatus, UniProt A0AAN3A7L1).
T2 construct: gene BACOVA_02743; residues 39-558, N-terminal His6 and Zbasic (ZB) tag (pNIC-ZB), expressed in E. coli BL21(DE3); model covers residues 40-559 as printed; 68 kDa
T2 sequence (A0AAN3A7L1 39-558): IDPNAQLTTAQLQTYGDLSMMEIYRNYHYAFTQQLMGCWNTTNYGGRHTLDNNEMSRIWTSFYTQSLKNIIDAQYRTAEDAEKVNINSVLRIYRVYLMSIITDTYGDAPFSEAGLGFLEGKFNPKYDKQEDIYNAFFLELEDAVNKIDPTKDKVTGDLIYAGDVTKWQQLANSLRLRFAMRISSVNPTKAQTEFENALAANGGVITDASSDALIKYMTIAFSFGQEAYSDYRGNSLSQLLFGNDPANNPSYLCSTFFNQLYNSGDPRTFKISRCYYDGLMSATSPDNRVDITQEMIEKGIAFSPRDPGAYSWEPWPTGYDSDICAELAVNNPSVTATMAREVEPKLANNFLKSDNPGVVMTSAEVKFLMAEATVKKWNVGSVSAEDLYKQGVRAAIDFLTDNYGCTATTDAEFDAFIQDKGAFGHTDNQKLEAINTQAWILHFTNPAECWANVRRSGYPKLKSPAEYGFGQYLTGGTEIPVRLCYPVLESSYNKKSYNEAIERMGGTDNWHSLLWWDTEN
The assay is described as follows: X-ray crystal structure of the complex, […] Å. To be noted: co-crystallised after overnight incubation with 0.33 mM ligand, 1 mM MgCl2; pH 5.5.

Assay [2] deals with T1, BoSGBPMLG-A. In words: microscale thermophoresis. The following applies: 50 mM HEPES pH 7.5, 100 mM NaCl, 5 mM CaCl2, 5 mM TCEP, 0.05% Tween 20, 25°C; protein NT-647 labelled; weak, affinity not determinable (ligand solubility). A general note: In MST a laser heats a spot of the sample, and binding alters the fluorescence response.

With `OC[C@H]1O[C@@H](O[C@H]2[C@H](O)[C@@H](O)[C@H](O[C@@H]3[C@@H](O)[C@H](O[C@H]4[C@H](O)[C@@H](O)[C@H](O[C@H]5[C@H](O)[C@@H](O)[C@H](O[C@H]6[C@H](O)[C@@H](CO)OC(O)[C@@H]6O)O[C@@H]5CO)O[C@@H]4CO)O[C@H](CO)[C@H]3O)O[C@@H]2CO)[C@H](O)[C@@H](O)[C@@H]1O` (stereo partly drawn) [barley-6], the Ka result on BoSGBPMLG-A [1] is “(1.53 ± 0.23) x 10^5”.
Take `OC[C@H]1O[C@@H](O[C@H]2[C@H](O)[C@@H](O)[C@H](O[C@H]3[C@H](O)[C@@H](O)[C@H](O[C@@H]4[C@@H](O)[C@H](O[C@H]5[C@H](O)[C@@H](O)[C@H](O[C@H]6[C@H](O)[C@@H](O)[C@H](O[C@H]7[C@H](O)[C@@H](CO)OC(O)[C@@H]7O)O[C@@H]6CO)O[C@@H]5CO)O[C@H](CO)[C@H]4O)O[C@@H]3CO)O[C@@H]2CO)[C@H](O)[C@@H](O)[C@@H]1O` (stereo partly drawn) [barley-7]: the Ka result on BoSGBPMLG-A [1] is given as “(1.06 ± 0.18) x 10^5”.
On the same count and under the same terms, the same measure for `OC[C@H]1O[C@@H](O[C@@H]2[C@@H](O)[C@H](O[C@H]3[C@H](O)[C@@H](O)[C@H](O[C@H]4[C@H](O)[C@@H](O)[C@H](O[C@@H]5[C@@H](O)[C@H](O[C@H]6[C@H](O)[C@@H](O)[C@H](O[C@H]7[C@H](O)[C@@H](O)[C@H](O[C@H]8[C@H](O)[C@@H](CO)OC(O)[C@@H]8O)O[C@@H]7CO)O[C@@H]6CO)O[C@H](CO)[C@H]5O)O[C@@H]4CO)O[C@@H]3CO)O[C@H](CO)[C@H]2O)[C@H](O)[C@@H](O)[C@@H]1O` (stereo partly drawn) [barley-8]: “(4.29 ± 1.15) x 10^5”.
`OC[C@H]1O[C@@H](O[C@H]2[C@H](O)[C@@H](O)[C@H](O[C@@H]3[C@@H](O)[C@H](O[C@H]4[C@H](O)[C@@H](O)[C@H](O[C@H]5[C@H](O)[C@@H](O)[C@H](O[C@@H]6[C@@H](O)[C@H](O[C@H]7[C@H](O)[C@@H](O)[C@H](O[C@H]8[C@H](O)[C@@H](O)[C@H](O[C@H]9[C@H](O)[C@@H](CO)OC(O)[C@@H]9O)O[C@@H]8CO)O[C@@H]7CO)O[C@H](CO)[C@H]6O)O[C@@H]5CO)O[C@@H]4CO)O[C@H](CO)[C@H]3O)O[C@@H]2CO)[C@H](O)[C@@H](O)[C@@H]1O` (stereo partly drawn) [barley-9]: the Ka result at BoSGBPMLG-A [1] is reported as “(4.62 ± 1.02) × 10^5”. In addition, the “X-ray crystal structure of the complex, 1.43 Å” value on BoSGBPMLG-A-ZB is given as “structure of BoSGBPMLG-A in complex with barley-9 (G4G3G4G4G3G4G4G3G)”.
Take `OC[C@H]1O[C@@H](O[C@H]2[C@H](O)[C@@H](O)[C@H](O[C@H]3[C@H](O)[C@@H](O)[C@H](O[C@H]4[C@H](O)[C@@H](O)[C@H](O[C@H]5[C@H](O)[C@@H](O)[C@H](O[C@H]6[C@H](O)[C@@H](O)[C@H](O[C@H]7[C@H](O)[C@@H](O)C(O)O[C@@H]7CO)O[C@@H]6CO)O[C@@H]5CO)O[C@@H]4CO)O[C@@H]3CO)O[C@@H]2CO)[C@H](O)[C@@H](O)[C@@H]1O` (stereo partly drawn) [cello-7]: on BoSGBPMLG-A [2], the microscale thermophoresis entry is “For the more weakly binding cello-7, it was not possible to determine the affinity”.
